Source: paper PMC8424217 (The Journal of Biological Chemistry, 2021)
Entries after “also recorded” stand apart in the source; their conditions may differ. Peptide text beside a SMILES is read from it. * marks the point of attachment. Palmitoyl = CCCCCCCCCCCCCCCC(=O)*

Columns and labels:
CHO-K1 cells = assay: IP1 production, IP-One terbium immunoassay, untransfected CHO-K1 cells; format: cell-based; settings: CHO-K1, 40 min incubation
Description: This assay, performed with the IP-One terbium immunoassay kits from Cisbio, was used according to the manufacturer recommendation and as previously described ([43]). Briefly, CHO-hUT cells were grown in 10-cm dishes for 24 h. The cells were then starved without serum. The next day, cells were washed once with PBS and collected in PBS containing 20 mM EDTA. For the assay, 80,000 cells per well (96-well plate) were used. […] IP1-d2 and anti-IP1-cryptate were added for an additional 2 h at room temperature. Plates were read on a Flexstation 3 microplate reader.
[Trp1, Leu2]hUT-Pep3. IP1 production was evaluated using the IP-One terbium immunoassay
kitsinCHO-K1 cells.Each histogram represents the mean ± SEM of atleast threeindependent
experiments performed in triplicate.
(also on this page, place not known: (% Maximal Response) FigureS3.IP1productioninCHO-K1cellsfollowingtreatmentbyhUII,hUT-Pep2or [Trp1,Leu2]hUT-Pep3.IP1productionwasevaluatedusingtheIP-Oneterbiumimmunoassay kitsinCHO-K1cells.Eachhistogramrepresentsthemean±SEMofatleastthreeindependent experimentsperformedintriplicate.)

hUT = biological target: T1, hUT (Homo sapiens, UniProt Q9UKP6); assay: ERK1/2 phosphorylation, BRET-based biosensor, HEK 293-hUT cells; format: cell-based; set-up: expressed in transfected cells; settings: concentration-response
T1 sequence (Q9UKP6 1-389): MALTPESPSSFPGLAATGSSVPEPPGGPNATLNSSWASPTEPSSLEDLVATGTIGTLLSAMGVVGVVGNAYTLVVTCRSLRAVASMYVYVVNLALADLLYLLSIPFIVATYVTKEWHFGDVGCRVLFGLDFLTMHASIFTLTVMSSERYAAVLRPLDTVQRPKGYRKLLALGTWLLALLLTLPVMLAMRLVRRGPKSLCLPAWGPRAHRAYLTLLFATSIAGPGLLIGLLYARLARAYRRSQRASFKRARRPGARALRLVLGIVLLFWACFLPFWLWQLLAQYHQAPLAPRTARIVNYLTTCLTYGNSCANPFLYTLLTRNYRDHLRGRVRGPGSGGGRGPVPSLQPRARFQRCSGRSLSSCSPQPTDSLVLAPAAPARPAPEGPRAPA
Description: HEK 293-hUT cells were grown in DMEM culture media supplemented with 10% foetal bovine serum, HEPES, sodium pyruvate, and G418 (200 μg mL^−1). Passages were performed when cells reached 80% of confluency. Cells were initially plated in 96-well plates at a density of 10,000 cells/well. The following day, the medium is replaced with DMEM culture media supplemented with 2.5% foetal bovine serum (FBS), and 12 h later, cells were transiently transfected with 25 ng/well of a Gq-polycistronic, 25 ng/well of a G12-polycistronic BRET sensor, 25 ng/well of a G13-polycistronic BRET sensor, 2.5 ng/well pIRESB RLucII-ERK-NLS-GFP BRET sensor, 2.5 ng β-arrestin 1-polycistronic BRET sensor, or 2.5 ng β-arrestin 2-polycistronic BRET sensor using Lipofectamine2000 at a ratio of 3:1 (Lipofectamine/plasmid DNA) in serum-free Opti-MEM ([44], [81]). […] Then, to evaluate Gq and G12 activation, 10 μl of a 1/20 dilution (diluted before use) of coelenterazine 400A (stock at 1 mM in ethanol) in Kreb's buffer and 10 μl of the 10× appropriate concentration of peptide were added, and the luminescence was evaluated with an Infinite M1000 PRO. […] Readings were performed after 5 min using an Infinite M1000 PRO. […] BRET ratio was determined by calculating the ratio of the light emitted by GFP10 over the light emitted by the RlucII. […]

HEK 293 cells [1] = test system: HEK 293 cells
Description: Pepducins are composed of a synthetic peptide, mimicking an intracellular GPCR loop, to which a hydrophobic moiety, most commonly the fully saturated C16 fatty acid palmitate, is conjugated at their N-termini ([39]). […] The second pepducin ([Trp^1, Leu^2]hUT-Pep3) comprises the hUT ICL3 sequence; however, the first two N-terminal amino acids were replaced by the corresponding residues from rat UT ICL3 (-Arg-Arg-in hUT and -Trp-Leu- in rUT).
Toxicity of hUT-derived pepducins was evaluated using (A) MTT or (B) LDH assays in HEK 293-hUT cells.
HEK 293 cells were seeded at a density of 2 × 10^4 cells/well in 96 well-plates and cultured at 37 °C for 24 h. Cells were then incubated in serum-free media with hUT-derived pepducins at various concentrations (10^−8 M–10^−4 M). Viability was assessed with an MTS kit (CellTiter 96 AQueous, Promega) and a microplate reader (MTX^TC Revelation, Dynex Tech) in order to determine the optical density related to the conversion of MTS into purple-colored water-soluble formazan. Positive control (cells treated with 10% DMSO) and negative control (nontreated cells) were included in each experiment. Results were expressed as the percentage of control (nontreated cells). The presence of lactate dehydrogenase (LDH), released in the culture medium from dead cells, was also determined using a commercial LDH kit (BioVision). Positive control (cells treated with lysis buffer) and negative control (nontreated cells) were included in each experiment. Results were expressed as the percentage of the maximum LDH release following cell lysis.

HEK 293 cells [2] = assay: Cell proliferation, MTT assay, HEK 293 cells without receptor; format: cell-based; settings: 10^−6 M
Description: Each bar corresponds to the mean ± SEM obtained from three independent experiments conducted in triplicate.

SMILES	IP1 production in untransfected CHO-K1 cells (CHO-K1 cells)	ERK1/2 phosphorylation (BRET) versus hUII (hUT)	effect on cell viability at 10^−4 M (HEK 293 cells [1])	effect on cell viability up to 10^−5 M (HEK 293 cells [1])	HEK 293 cell proliferation in absence of receptor (HEK 293 cells [2])
CCCCCCCCCCCCCCCC(=O)N[C@@H](Cc1c[nH]c2ccccc12)C(=O)N[C@@H](CC(C)C)C(=O)N[C@@H](CO)C(=O)N[C@@H](CCC(N)=O)C(=O)N[C@@H](CCCNC(=N)N)C(=O)N[C@@H](C)C(=O)N[C@@H](CO)C(=O)N[C@@H](Cc1ccccc1)C(=O)N[C@@H](CCCCN)C(=O)N[C@@H](CCCNC(=N)N)C(=O)N[C@@H](C)C(=O)N[C@@H](CCCNC(=N)N)C(=O)N[C@@H](CCCNC(=N)N)C(N)=O [[Trp^1, Leu^2]hUT-Pep3] (Palmitoyl-WLSQRASFKRARR-NH2)	not untransfected CHO-K1 cells	lower potency and efficacy than hUII	as cytotoxic as unmodified hUT-Pep3 at 10^−7 M	did not significantly affect HEK 293 cell viability	completely abrogated
CC(C)[C@H](NC(=O)[C@@H]1CSSC[C@H](NC(=O)[C@H](CC(=O)O)NC(=O)[C@@H]2CCCN2C(=O)[C@@H](NC(=O)[C@@H](N)CCC(=O)O)[C@@H](C)O)C(=O)N[C@@H](Cc2ccccc2)C(=O)N[C@@H](Cc2c[nH]c3ccccc23)C(=O)N[C@@H](CCCCN)C(=O)N[C@@H](Cc2ccc(O)cc2)C(=O)N1)C(=O)O [hUII, urotensin II, reference compound]					completely abrogated
CCCCCCCCCCCCCCCC(=O)N[C@@H](CCCNC(=N)N)C(=O)N1CCC[C@H]1C(=O)N[C@@H](CC(C)C)C(=O)N[C@@H](CC(=O)O)C(=O)N[C@H](C(=O)N[C@H](C(=O)N[C@@H](CCC(N)=O)C(=O)N[C@@H](CCCNC(=N)N)C(=O)N1CCC[C@H]1C(=O)N[C@@H](CCCCN)C(=O)NCC(=O)N[C@@H](Cc1ccc(O)cc1)C(N)=O)C(C)C)[C@@H](C)O [hUT-Pep2] (Palmitoyl-RPLDTVQRPKGY-NH2)	not untransfected CHO-K1 cells	lower potency and efficacy than hUII; also recorded: partial agonist	as cytotoxic as unmodified hUT-Pep3 at 10^−7 M	did not significantly affect HEK 293 cell viability	
